Laboratory results as given in patent US5171676A, “Method of introducing hydroxyl groups into artemisinin and its derivatives” (priority 1991, dated 1992).
In brackets after ≈: the same amount, converted by molar mass. Read-outs that look alike come from different tables or passages of the source.

How the values were obtained:
[1] = system: Plasmodium falciparum, malarial strain W2; assay: Antimalarial activity in vitro, growth inhibition, strain W2; format: cell-based; details: for IC50: Plasmodium falciparum
Experimental: (§1) The antimalarial activity of various hydroxylated artemisinin derivatives obtained via the present method was determined by Drs. S. Anderson and W.K. Milhous at the Division of Experimental Therapeutics, Walter Reed Army Institute of Research, Washington, D.C.
(§2) The malarial strains employed in this survey include D6, W2, and GA3. In Table 2, below, the -pharmacological data are reported as IC-50, indicating the concentration, in ng per ml, of compound required to inhibit growth of the parasite at the 50% level.

Plasmodium falciparum = assay: Antimalarial activity against the strains tested (summary of in vitro tests); format: cell-based; details: in words
Experimental: as §1, §2

[2] = system: Plasmodium falciparum, malarial strain GA3; assay: Antimalarial activity in vitro, growth inhibition, strain GA3; format: cell-based; details: 50% inhibition of parasite growth; for IC50: Plasmodium falciparum
Experimental: as §1, §2

[3] = system: Plasmodium falciparum, malarial strain D6; assay: Antimalarial activity in vitro, growth inhibition, strain D6; format: cell-based; details: for IC50: Plasmodium falciparum
Experimental: as §1, §2

Falciparum malaria = details: cited from earlier work; for reversal of chloroquine-resistance: with chloroquine, reports by Van Dyke et al.
P. falciparum = details: cited from earlier work
[4] = strain W2, in vitro, 50% inhibition of parasite growth, read-out: IC-50
[5] = strain D6, in vitro, 50% inhibition of parasite growth, read-out: IC-50

IC50 [1, 4] [ng/mL] | IC50 [2] [ng/mL] | IC50 [3, 5] [ng/mL] | Compound | antimalarial activity (Plasmodium falciparum) | other results
2.77 (≈ 8.43 nM) | 8.18 (≈ 24.9 nM) | 12.6 (≈ 38.4 nM) | CCOC1OC2OC3(C)CCC4C(CO)CCC(C1C)C24OO3 (stereo not shown) [14-Hydroxyarteether] | exhibit antimalarial activity against the strains tested | 
 |  |  | COc1ccc2cc1Oc1ccc(cc1)C[C@H]1c3cc(c(OC)cc3CCN1C)Oc1c(OC)c(OC)cc3c1[C@H](C2)N(C)CC3 [tetrandrine] |  | synergy with antimalarial drugs (Falciparum malaria; Van Dyke): act in a synergistic manner to greatly reduce the quantities of drugs required for activity; reversal of chloroquine-resistance (Falciparum malaria): reverse the chloroquine-resistance in Falciparum malaria
 |  | 2 (≈ 4.77 nM) | C[C@H]1C(OC(=O)Nc2ccccc2)O[C@@H]2O[C@@]3(C)CC[C@H]4[C@H](CO)CC[C@@H]1[C@@]24OO3 (stereo partly shown) [14-Hydroxy-N-phenylcarbamoyl dihydroartemisinin] | exhibit antimalarial activity against the strains tested | 
 |  |  | CCN(CC)CCCC(C)Nc1ccnc2cc(Cl)ccc12 (stereo not shown) [Chloroquine, chloroquine] |  | IC50 ([1]; W2): 41.4 ng/mL (≈ 129 nM); IC50 ([3]; D6): 6.63 ng/mL (≈ 20.7 nM)
 |  |  | CCOC1OC2OC3(C)CCC4C(C)C(O)CC(C1C)C24OO3 (stereo not drawn) [7β-Hydroxyarteether] | exhibit antimalarial activity against the strains tested | IC-50 ([1]; strain W2, in vitro, 50% inhibition of parasite growth): 2.78 ng/mL; IC-50 [2]: 8.83 ng/mL; IC-50 ([3]; strain D6, in vitro, 50% inhibition of parasite growth): 12.6 ng/mL
 |  |  | COc1ccc(CCN(C)CCCC(C#N)(c2ccc(OC)c(OC)c2)C(C)C)cc1OC (stereo not shown) [verapamil] |  | synergy with antimalarial drugs (Falciparum malaria): act in a synergistic manner to greatly reduce the quantities of drugs required for activity; reversal of chloroquine-resistance (Falciparum malaria): reverse the chloroquine-resistance in Falciparum malaria
0.28 (≈ 0.896 nM) | 0.498 (≈ 1.59 nM) | 0.73 (≈ 2.34 nM) | CCOC1OC2OC3(C)CCC4C(C)CCC(C1C)C24OO3 (stereo not shown) [Arteether, ethyl ether of dihydroartemisinin] |  | 

Compound | IC50 [1, 4] [ng/mL] | IC50 [2] [ng/mL] | IC50 [3, 5] [ng/mL] | antimalarial activity (Plasmodium falciparum) | other results
C[C@@H]1CC[C@H]2[C@@H](C)C(=O)O[C@@H]3O[C@@]4(C)CC[C@@H]1[C@]32OO4 [Artemisinin, artemisinin] | 0.79 (≈ 2.8 nM) | 1.58 (≈ 5.6 nM) | 0.97 (≈ 3.44 nM) |  | resistance development (P. falciparum; P. falciparum): P. falciparum has not developed resistance; speed of action (P. falciparum): act rapidly; toxicity (P. falciparum): relatively non-toxic
